Assay results as given in PubChem BioAssay AID1745844 (Carcinogenic Potency Database (CPDB), 2022).
The source made the active and inactive calls. The rule behind the calls is not given here.

Test system: rodent lifetime carcinogenesis bioassay, tumor incidence TD50
Assay: carcinogenic potency in animals, long-term in vivo studies, CPDB compilation (AID 1745844)

## CC(=O)[O-].CC(=O)[O-].[OH-].[OH-].[OH-].[OH-].[Pb+2].[Pb+2].[Pb+2]
mouse, strain Swiss, females, in feed, site: kidney, lesion: adenoma, dosed 104 weeks, study length 104 weeks
  carcinogen call: positive
mouse, strain Swiss, females, in feed, site: kidney, lesion: carcinoma, dosed 104 weeks, study length 104 weeks
  TD50: 14800 mg/kg/day
mouse, strain Swiss, males, in feed, site: kidney, lesion: adenoma, dosed 86 weeks, study length 104 weeks
  TD50: 986 mg/kg/day
mouse, strain Swiss, males, in feed, site: kidney, lesion: carcinoma, dosed 86 weeks, study length 104 weeks
  TD50: 472 mg/kg/day
rat, strain Sprague-Dawley, males, in feed, site: kidney, lesion: several types, types named in the paper, dosed 79 weeks, study length 79 weeks
  TD50: 266 mg/kg/day
rat, strain Sprague-Dawley, males, in feed, site: liver, lesion: one or several types, types not named, dosed 79 weeks, study length 79 weeks
  carcinogen call: negative (inactive)
rat, strain Wistar, females, in feed, site: kidney, lesion: several types, types named in the paper, dosed 104 weeks, study length 104 weeks
  TD50: 339 mg/kg/day
rat, strain Wistar, females, in feed, site: kidney, lesion: several types, types named in the paper, dosed 126 weeks, study length 126 weeks
  TD50: 107 mg/kg/day
rat, strain Wistar, males, in feed, site: kidney, lesion: several types, types named in the paper, dosed 104 weeks, study length 104 weeks
  TD50: 443 mg/kg/day
rat, strain Wistar, males, in feed, site: kidney, lesion: several types, types named in the paper, dosed 126 weeks, study length 126 weeks
  TD50: 107 mg/kg/day

## CCCCCCCCS(=O)C(C)Cc1ccc2c(c1)OCO2 (stereo not drawn)
mouse, strain B6AKF1, males, oral dosing, site: liver, lesion: hepatoma, dosed 76 weeks, study length 76 weeks
  TD50: 88.2 mg/kg/day
mouse, strain B6C3F1, females, in feed, site: any site (literature study), lesion: several types, types named in the paper, dosed 104 weeks, study length 104 weeks
  carcinogen call: negative (inactive)
mouse, strain B6C3F1, females, in feed, site: liver, lesion: hepatocellular adenoma + hepatocellular carcinoma + neoplastic nodule, dosed 104 weeks, study length 104 weeks
  TD50: 725 mg/kg/day
mouse, strain B6C3F1, females, oral dosing, site: any site (literature study), lesion: several types, types named in the paper, dosed 76 weeks, study length 76 weeks
  TD50: 100 mg/kg/day
mouse, strain B6C3F1, males, in feed, site: any site (literature study), lesion: several types, types named in the paper, dosed 104 weeks, study length 104 weeks
  TD50: 423 mg/kg/day
mouse, strain B6C3F1, males, in feed, site: liver, lesion: hepatocellular adenoma + hepatocellular carcinoma + neoplastic nodule, dosed 104 weeks, study length 104 weeks
  TD50: 62.2 mg/kg/day
mouse, strain B6C3F1, males, in feed, site: liver, lesion: hepatocellular carcinoma, dosed 104 weeks, study length 104 weeks
  TD50: 62.2 mg/kg/day
mouse, strain B6C3F1, males, oral dosing, site: all sites, lesion: reticulum-cell sarcoma, dosed 76 weeks, study length 76 weeks
  TD50: 9.1 mg/kg/day
mouse, strain B6C3F1, males, oral dosing, site: any site (literature study), lesion: several types, types named in the paper, dosed 76 weeks, study length 76 weeks
  TD50: 7.72 mg/kg/day
mouse, strain B6C3F1, males, oral dosing, site: liver, lesion: hepatoma, dosed 76 weeks, study length 76 weeks
  TD50: 45.4 mg/kg/day
rat, strain Fischer 344, females, in feed, site: any site (literature study), lesion: several types, types named in the paper, dosed 105 weeks, study length 105 weeks
  TD50: 2300 mg/kg/day (inactive)
rat, strain Fischer 344, males, in feed, site: any site (literature study), lesion: several types, types named in the paper, dosed 105 weeks, study length 105 weeks
  carcinogen call: negative (inactive)
rat, strain Fischer 344, males, in feed, site: liver, lesion: hepatocellular adenoma + hepatocellular carcinoma + neoplastic nodule, dosed 105 weeks, study length 105 weeks
  TD50: 2650 mg/kg/day

## Oc1c(Cl)cc(Cl)c(Cl)c1Cc1c(O)c(Cl)cc(Cl)c1Cl
mouse, strain C57BL, females, in feed, site: any site (literature study), lesion: several types, types named in the paper, dosed 104 weeks, study length 104 weeks
  carcinogen call: negative (inactive)
mouse, strain C57BL, females, in feed, site: liver, lesion: hepatoma, dosed 104 weeks, study length 104 weeks
  TD50: 434 mg/kg/day (inactive)
mouse, strain C57BL, males, in feed, site: any site (literature study), lesion: several types, types named in the paper, dosed 104 weeks, study length 104 weeks
  TD50: 900 mg/kg/day (inactive)
mouse, strain C57BL, males, in feed, site: liver, lesion: one or several types, types not named, dosed 104 weeks, study length 104 weeks
  carcinogen call: negative (inactive)
mouse, strain C57BL, males, in feed, site: lung, lesion: one or several types, types not named, dosed 104 weeks, study length 104 weeks
  carcinogen call: negative (inactive)
mouse, strain XVII/G, females, in feed, site: any site (literature study), lesion: several types, types named in the paper, dosed 104 weeks, study length 104 weeks
  TD50: 39.4 mg/kg/day (inactive)
mouse, strain XVII/G, females, in feed, site: liver, lesion: one or several types, types not named, dosed 104 weeks, study length 104 weeks
  carcinogen call: negative (inactive)
mouse, strain XVII/G, females, in feed, site: lung, lesion: one or several types, types not named, dosed 104 weeks, study length 104 weeks
  TD50: 33.4 mg/kg/day (inactive)
mouse, strain XVII/G, males, in feed, site: any site (literature study), lesion: several types, types named in the paper, dosed 104 weeks, study length 104 weeks
  TD50: 17.8 mg/kg/day (inactive)
mouse, strain XVII/G, males, in feed, site: liver, lesion: adenoma, dosed 104 weeks, study length 104 weeks
  TD50: 450 mg/kg/day (inactive)
mouse, strain XVII/G, males, in feed, site: lung, lesion: one or several types, types not named, dosed 104 weeks, study length 104 weeks
  TD50: 17.8 mg/kg/day (inactive)
rat, strain Fischer 344, females, in feed, site: any site (literature study), lesion: several types, types named in the paper, dosed 106 weeks, study length 106 weeks
  carcinogen call: negative (inactive)
rat, strain Fischer 344, males, in feed, site: any site (literature study), lesion: several types, types named in the paper, dosed 106 weeks, study length 106 weeks
  TD50: 30.4 mg/kg/day
rat, strain Fischer 344, males, in feed, site: subcutaneous tissue, lesion: fibrosarcoma, dosed 106 weeks, study length 106 weeks
  TD50: 41.3 mg/kg/day (inactive)
rat, strain Fischer 344, males, in feed, site: tunica vaginalis, lesion: mesothelioma, NOS, dosed 106 weeks, study length 106 weeks
  TD50: 57.5 mg/kg/day
